The target in one experiment is T1, BmFADH (Burkholderia multivorans, UniProt A0A0H3KP42).
T1 construct: gene fdhA2; recombinant in E. coli BL21(DE3), pETDuet, C-terminal His-tag; Zn2+ dependent
T1 sequence (A0A0H3KP42 1-398): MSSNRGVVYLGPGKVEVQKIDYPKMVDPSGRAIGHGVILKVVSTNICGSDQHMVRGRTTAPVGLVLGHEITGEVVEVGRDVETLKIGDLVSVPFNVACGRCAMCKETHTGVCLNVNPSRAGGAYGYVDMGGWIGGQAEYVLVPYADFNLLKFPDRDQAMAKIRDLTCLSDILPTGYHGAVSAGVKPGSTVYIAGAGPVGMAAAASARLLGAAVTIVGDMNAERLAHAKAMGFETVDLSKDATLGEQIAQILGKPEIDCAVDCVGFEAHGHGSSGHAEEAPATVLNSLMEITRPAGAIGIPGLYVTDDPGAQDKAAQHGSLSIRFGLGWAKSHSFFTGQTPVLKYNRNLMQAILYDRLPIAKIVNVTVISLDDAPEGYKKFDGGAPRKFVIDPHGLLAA
Kind of experiment: NADH consumption at […] nm. It counts as biochemical. The following applies: 1 mM NADH, 5 mM NaMeO2, 50 mM phosphate pH 7.5, 2 h.

For the next experiment, the system named is T2, GoADH.
T2 construct: gene adh; recombinant in E. coli BL21(DE3), pETDuet, C-terminal His-tag; codon-optimized gene; Zn2+ dependent
Kind of experiment: steady-state kinetics, Michaelis-Menten fit. It counts as biochemical, Gluconobacter oxydans. Particulars: NADH co-substrate; free enzyme; glycolaldehyde reduction.

As for `NC(=O)C1=CN([C@@H]2O[C@H](COP(=O)(O)OP(=O)(O)OC[C@H]3O[C@@H](n4cnc5c(N)ncnc54)[C@H](O)[C@@H]3O)[C@@H](O)[C@H]2O)C=CC1` [NADH], at BmFADH, the “NADH consumption at 340 nm” value is “activity of PaFDH, BmFADH, and GoADH was determined by measuring the consumed NADH”.

Regarding `O=CCO` [glycolaldehyde], the Michaelis-Menten constant (Km) (in general, the substrate concentration at which the rate is half of its maximum) in the experiment on GoADH came to 432 µM.
